# Measured values from patent US6811990B1, “Methods and compositions for coupled luminescent assays” (priority 2001, dated 2004).
# Like-named read-outs stand apart in the source and are kept apart here.
# Experiments:
# G3PDH or PGK = experiment: Stop reagent test in DeathTRAK reaction with G3PDH test enzyme; format: biochemical; details: ~3 mM final BPV, added after 21 minutes, with and without added PGK
# Description: In another aspect, the present invention provides methods and compositions for a single-timepoint coupled luminescent assay, making use of a stop reagent to end the production of the high-energy molecule that is the luciferase substrate, while allowing the luciferase reaction to continue. In a preferred embodiment of this concept, an inhibitor of G3PDH or PGK is used to stop production of ATP in the DeathTRAK reactions of Examples 1 and 2. […] It is also possible to perform a single read without a stop reagent, but the stop reagent allows the read to be done at a time convenient to the user, multiple times, or for an extended period. […] Any molecule which inhibits G3PDH and/or PGK, but inhibits luciferase to a lesser or insignificant degree, might be used.
# To a 0.5-mL aliquot of this cocktail, 0.0016 mL of 1:1,000,000-diluted PGK were added (termed “+PGK” cocktail). Two 0.045-mL aliquots of the standard unoptimized cocktail and two 0.045-mL aliquots of the “+PGK” cocktail were measured into a luminescent microtiter plate. 0.005 mL of 1:100,000-diluted G3PDH was transferred to each of these four aliquots of cocktail. […] Use of this or an alternative stop reagent allows the user to delay reading the plate, while maintaining the relative signal strengths of the samples.
# E. coli strain K1 [1] = experiment: DeathTRAK cytotoxicity mode, antibiotics on E. coli
# Protocol: (§1) FIGS. 13-15 illustrate the use of cytotoxicity/proliferation mode to characterize the effects of various antibiotics on E. coli cells. First, the cytotoxicity signal was obtained by adding the DeathTRAK reagent cocktail directly to the toxicity reaction, three hours after the antibiotics were added to the E. coli culture. The luminance was measured and recorded (FIG. 13), whereupon the lytic agent was added, and the luminance was immediately measured again (FIG. 14).
# (§2) E. coli (strain K1, obtained from Dr. Craig Rubens of Children's Hospital and Regional Medical Center, Seattle, Wash.) were inoculated from a frozen permanent into 1-2 mL of LB, grown overnight, diluted 1:20 into LB, grown a further 106 minutes at 37C with 240 rpm shaking, harvested by centrifugation, washed twice with LB, and resuspended to a final A600 of 1.549. It was determined by colony-forming unit assays that an A600 of 2.18 corresponds to ˜3.02×10^8 cells/mL. This was diluted to 200,000/mL and a 10% volume of 10 mM dithiothreitol and 1% protease inhibitor cocktail in LB was added (yielding 0.1% protease inhibitor cocktail after mixing). 55 μL of this mixture was distributed to each test well of a 96-well white luminance microtiter plate, whereupon 5 μL of antibiotic or PBS (vehicle) was added. The plate was shaken at 240 rpm for 3 hours at 37C. 40 μL of DeathTRAK cocktail was then added and luminance was read for ˜8 minutes. The lytic agent was then made up as equal parts 6000 units/mL polymyxin B and 50% lysozyme, both in PBS. 10 μL of this lytic agent was added to each well and the second luminance readout (proliferation/viability) was taken.
# E. coli = experiment: Colony-forming unit (CFU) tests of antibiotic-treated cultures; format: cell-based; details: E. coli cultures plated at various dilutions
# E. coli strain K1 [2] = experiment: DeathTRAK proliferation/viability mode after polymyxin B/lysozyme lysis, antibiotics on E. coli; format: cell-based; details: for Proliferation/Viability: E. coli, Table V, DeathTRAK readout after lytic agent
# Protocol: as §1, §2
# Group-A Streptococci [3] = tested on: Group-A Streptococci
# Protocol: (§3) The A600 was 0.356. […] After washing the cells were grown for 90 minutes at 37C with 240 rpm shaking. Antibiotics or PBS (vehicle) were then added in 5 μL, and the protective cocktail containing dithiothreitol and protease inhibitor cocktail was added in a further 5 μL. The cells were incubated at 37C with 240 rpm shaking for a further 90 minutes, whereupon the DeathTRAK cocktail was added and the cytotoxicity read as described above for Gram negatives. The total-lysis agent, 10 μL of 2% Nonidet P-40, was then added, and the proliferation/viability signal was read as above for Gram negatives.
# Group-A Streptococci [4] = experiment: DeathTRAK proliferation/viability mode after Nonidet P-40 lysis, Group-A Streptococci; format: cell-based, Group-A Streptococcus; details: 90 minutes with antibiotic, after Nonidet P-40 lysis (FIG. 17)
# Description: These are Gram positive organisms. […] However, both cytotoxicity and proliferation effects are seen. […] Finally, the result with gentamicin is distinctive.
# Group-A Streptococci [5] = experiment: DeathTRAK cytotoxicity mode, antibiotics on Group-A Streptococci; details: 90 minutes with antibiotic (FIG. 16)
# Protocol: as §3
# DeathTRAK signal = experiment: Effect of detergent on the DeathTRAK signal; format: biochemical; details: at 0.1% Nonidet P-40; changes very little above approximately 0.1%
# Description: FIG. 12 illustrates the use of cytotoxicity/proliferation mode to measure both the cytotoxic effects and the total cell number after addition of the detergent Nonidet P40 to the mammalian cell line 841 CON. Similar results have been obtained with the PC-3 prostate cancer and T24 bladder-cancer cell lines. In these experiments, the detergent is used as both the toxin and the final lytic agent. Thus the cytotoxicity signal in FIG. 12 represents the signal obtained after the indicated quantities of detergent were added to the cells, and the proliferation signal in the same figure represents the signals obtained after an additional 0.2% Nonidet P-40 was added to all the cells. […] Thus Nonidet P-40 can be used as the universal lytic agent for measuring proliferation of mammalian cells, provided that if it is desired to compare the cytotoxicity and proliferation signals, the final signal must be corrected for the inhibitory effect of the detergent. If the final detergent concentration used is above approximately 0.1%, then this correction will consist essentially of multiplication by a constant. However, if proliferation signals alone are to be compared, this correction is not necessary. Note that in FIG. 12, the proliferation signal is fairly constant. This is because each experiment began with the same number of cells seeded into each well. […]
# [6] = E. coli K1, three hours with antibiotic, after lytic agent (FIG. 14)
Molecule,Cytotoxicity (E. coli strain K1 [1]),cytotoxicity signal (E. coli strain K1 [1]),toxicity by CFU assay (E. coli),effect on proliferation/viability (E. coli strain K1 [2]; [6]),Proliferation/Viability (E. coli strain K1 [2]),proliferation/viability signal (Group-A Streptococci [4]),cytotoxicity signal (Group-A Streptococci [5]),further results
"O=C(O)C(=O)CBr [BPV, bromopyruvic acid]",,,,,,,,increase in luminance (ATP production) in DeathTRAK reaction (G3PDH or PGK): stopped the increase in luminance
CC1(C)S[C@@H]2[C@H](NC(=O)C(C(=O)O)c3ccccc3)C(=O)N2[C@H]1C(=O)O (some centres unmarked) [Carbenicillin],+,strong cytotoxicity,toxic,strong inhibitory effect on proliferation/viability,+,,,cytotoxicity signal (Group-A Streptococci [3]): identified as a lytic agent
Nc1ccc(S(N)(=O)=O)cc1 [Sulfanilamide],−,no toxicity,,no toxicity or effect on proliferation/viability,,,,
CN[C@H](CC(C)C)C(=O)N[C@H]1C(=O)N[C@@H](CC(N)=O)C(=O)N[C@H]2C(=O)N[C@H]3C(=O)N[C@H](C(=O)N[C@H](C(=O)O)c4cc(O)cc(O)c4-c4cc3ccc4O)[C@H](O)c3ccc(c(Cl)c3)Oc3cc2cc(c3O[C@@H]2O[C@H](CO)[C@@H](O)[C@H](O)[C@H]2O[C@H]2C[C@](C)(N)[C@H](O)[C@H](C)O2)Oc2ccc(cc2Cl)[C@H]1O [Vancomycin],,,toxic,slight inhibition of proliferation/viability,+,very strong reduction in the proliferation/viability signal,little or no direct cytotoxicity,"cytotoxicity signal (E. coli strain K1 [1]; E. coli K1, three hours after antibiotics were added (FIG. 13)): slight but statistically significant toxicity; Cytotoxicity (E. coli strain K1 [1]; E. coli, Table V, DeathTRAK cytotoxicity readout): +"
Gentamicin,,,,,+,strongly toxic,negative toxicity signal,"Cytotoxicity (E. coli strain K1 [1]; E. coli K1, 90 minutes (FIG. 15)): no cytotoxicity; effect on proliferation/viability (E. coli strain K1 [2]; E. coli K1, similar experiment, 90 minutes (FIG. 15)): strong effect on proliferation/viability"
Nonidet P-40,,,,,,,,inhibition of DeathTRAK signal (DeathTRAK signal): approximately 45%
